Data taken from patent publication US20260365696A1, “INHIBITORS OF PTP1B / NCK1 INTERACTION AND METHODS OF MAKING AND USING SAME” (Radella Pharmaceuticals LLC, priority 2023, published 2026).
Entries after “also recorded” stand apart in the source; their conditions may differ.

Columns and labels:
[1] = Microsomal metabolic stability; type: in vitro ADME; details: human liver microsomes 0.5 mg/mL, 1 μM, 37 °C
Experimental: Microsomal Metabolic Stability (human liver microsomes): Human liver microsomes (final protein concentration 0.5 mg/mL), 0.1 M phosphate buffer pH 7.4 and test compound MD20 (final substrate concentration 1 μM; final DMSO concentration 0.25%) were pre-incubated at 37 °C prior to the addition of NADPH (final concentration 1 mM) to initiate the reaction. A minus cofactor control incubation was included for each compound tested where 0.1 M phosphate buffer pH 7.4 was substituted for NADPH (“minus NADPH”).
Each compound was incubated for 0, 5, 15, 30 and 45 min. The control (minus NADPH) was incubated for 45 min only. The reactions were stopped by transferring incubate in to acetonitrile at the appropriate time points, in a 1:3 ratio. The termination plates were centrifuged at 3,000 rpm for 20 min at 4 °C to precipitate the protein. Following protein precipitation, the sample supernatants were combined in cassettes of up to 4 compounds, internal standard was added and samples were analyzed using Cyprotex generic LC-MS/MS conditions. The time point at which 30-70% of parent had degraded was then investigated at 3 different levels of metabolite profiling and/or identification. The intrinsic clearance (CLint) of the test compound was calculated.

[2] = In vivo biodistribution / pharmacokinetics in C57/BL6 mice; parameters: species or system mouse; details: 30 mg/kg IP
Experimental: FIG. 6 is a graph showing MD20 concentrations in the indicated tissues in a mouse following intraperitoneal (IP) administration of the peptide at a dose of 30 mg/kg. Tissue samples were collected at 0, 0.25, 0.5, 1, 2, 4, 8, and 24 hours post-injection.
Biodistribution: In vivo pharmacokinetic assessments of biodistribution of MD20 were performed in C57/BL6 male mice. All animals were maintained under a 12 h light/dark cycle with free access to food and water, where temperature and humidity was controlled according to UK Home Office regulations. MD20 compound was dissolved in PBS and administered to animals via intraperitoneal (IP) injection at a dose of 30 mg/kg. Mice were sacrificed at eight different time points (0.25, 0.5, 1, 3, 4, 6, 8 and 24 h house post-dosing; n=3 animals per time point, 24 animals in total). Terminal blood (in EDTA-containing tubes for plasma), perfused liver, muscle, adipose, kidney and brain samples were collected and kept on dry ice. Blood samples were centrifuged (4 °C, 21,100 g for 5 min) and the resulting plasma was transferred in to corresponding tubes. All samples were analyzed using LC-MS and appropriate methods.

db/db mice = test: db/db genetic mouse model of diabetes and obesity; type: in vivo
From the text: Animals: All animals were housed and tested following European (Directive on the Protection of Animals used for Scientific Purposes, 2010/63/EU) and UK Home Office regulations. Experiments were approved by the University Ethics Board and carried out in accordance with the Animal (Scientific Procedures) Act 1986 and following ARRIVE guidelines. Db/db male mice (~4 weeks old) were purchased from Jackson, USA. All mice received standard mouse chow diet and had ad libitum access to food and water and were kept in a 12 h light/dark cycle.
Treatments: Mice were assigned and counterbalanced according to their body weights in to the following groups: control PBS (n=10); MD18 at 15 mg/kg (n=7), 30 mg/kg (n=8), or 45 mg/kg (n=7); or MD20 at 15 mg/kg (n=9), 30 mg/kg (n=10) or 45 mg/kg (n=7). MD18 and MD20 were administered once daily via subcutaneous (SC) injection for 41 days, whereas control mice received a daily SC injection of vehicle (PBS). MD18 and MD20 were kept in −20 °C and dissolved in sterile phosphate buffered saline (PBS).
Body weights and body mass composition: Body weights were recorded twice weekly during the study, and fat mass and lean mass composition was analysed using an EchoMRI scanner (EchoMedical Systems, Houston, TX, U.S.A.).
Metabolic measurements: All animals were five-hour fasted before obtaining basal glucose measurements and GTT, ITT, and corresponding treatments were administered 1 hour before glucose measurements. Tail blood glucose was measured using AlphaTRAK 2 glucose strips and glucometer (Abbot, UK), or blood was collected and glucose assay (AB65333, Abcam) was performed where readings were too high to be recorded via glucometer. Human Actrapid Insulin (NovaNordisk) at 1 IU/kg dose was administered during ITT.
Serum and liver assays: Trunk-derived blood was collected from 5 h-fasted mice into serum separator microtubes and kept at −80 °C. Serum was used for insulin (#EZRMI-13K, Merck) and leptin (#90030, Crystal Chem) analyses.
Statistical analyses: Data were reported as means±SEM and analysed using one- or two-way ANOVA with Bonferroni post hoc tests, as appropriate. GraphPad Prism (V8, GraphPad Software, Inc., San Diego, California, USA) was used for statistical analyses. P-values <0.05 were considered significant.

ATF4 = ATF4 gene expression in liver of LDLR−/− mice (qPCR); type: in vivo, mouse; details: 30 mg/kg IP daily, vs control
Experimental: (§1) FIGS. 30A-30E are graphs showing expression of various genes in tissues of HFD-fed LDLR−/− mice following 6 weeks of daily IP administration of MD20 (30 mg/kg) or a vehicle control. Mice were fasted for 5 hours at the conclusion of the experiment, liver and white adipose tissue (“WAT”) samples were collected, and gene expression was measured by qRT-PCR. Expression of glucose transporter 4 (GLUT4; FIG. 30A) and stearoyl-CoA-desaturase 1 (SCD1; FIG. 30B) was measured in adipose tissue, and expression of Glucose-6-phosphatase (G6P; FIG. 30C), Activating Transcription Factor 4 (ATF4; FIG. 30D), and 3-hydroxy-3-methylglutaryl (HMGCS; FIG. 30E) was measured in liver tissue. Data represent mean±SEM; statistical differences were determined using two tailed student's t-test.
(§2) Gene expression analyses: Livers and adipose tissue were collected from 5 h-fasted animals and snap-frozen in liquid nitrogen. RNA was isolated from frozen liver tissue using TRIzole (Sigma, UK) and cDNA was synthesized from 1 μg RNA using bioscript cDNA synthesis kit (Bioline, UK), oligo (dT) 18 (SEQ ID NO: 170), and random hexamer primers.
(§3) Genes of interest were amplified by quantitative PCR (qPCR) using gene-specific primers and GoTaq qPCR master mix (Promega, Madison, WI, USA).

HMGCS = HMGCS gene expression in liver of LDLR−/− mice (qPCR); type: in vivo, mouse; details: 30 mg/kg IP daily, vs control
Experimental: as §1, §2, §3

Question: Which results are given for Ac-PRPPKR-NH2 [MD20, Ac-PRPPKR-NH2]?
Answer: intrinsic clearance (CL int) [1]: 4.90; detection in most tissues and plasma, time post-administration [2]: up to 5 h; stability and bioavailability in vivo [2]: good stability and bioavailability in vivo; detection in liver ([2]; any time point): No MD20 was detected in the liver; also recorded: not detected in liver tissue at any time point; fasted insulin levels (db/db mice; 15 mg/kg SC daily, about 6 weeks, vs control): significant decrease in insulin levels; leptin levels (db/db mice; 30 mg/kg SC daily, about 6 weeks, vs control): significant decrease in leptin levels; basal glucose levels (db/db mice; 5-hour-fasted, SC daily, vs vehicle): No significant differences; body weight gain (db/db mice; 15, 30 or 45 mg/kg SC daily, significant overall interaction): inhibited body weight gain; glucose clearance during GTT (db/db mice; SC daily, week 4, vs control, all doses): No significant differences in glucose clearance; insulin tolerance test (ITT) (db/db mice; SC daily, week 6, 1 IU/kg insulin, vs control): did not detect any significant differences; ATF4 expression in liver (ATF4): decreased; HMGCS expression (HMGCS): upregulated
